Results as given in ChEMBL document CHEMBL4507272 (2021).

Columns and labels:
[1] = molecular target: Ribosomal protein S6 kinase alpha-5 (Homo sapiens) (UniProt O75582); conditions: Compound concentration 1000.0 nM
[2] = molecular target: Protein kinase C eta type (Homo sapiens) (UniProt P24723); conditions: Compound concentration 1000.0 nM
[3] = molecular target: BDNF/NT-3 growth factors receptor (Homo sapiens) (UniProt Q16620); conditions: Compound concentration 1000.0 nM
[4] = molecular target: Ephrin type-A receptor 7 (Homo sapiens) (UniProt Q15375); conditions: Compound concentration 1000.0 nM
[5] = molecular target: Bone morphogenetic protein receptor type-2 (Homo sapiens) (UniProt Q13873); conditions: Compound concentration 1000.0 nM
[6] = test system: Receptor-type tyrosine-protein kinase FLT3 (Homo sapiens), P36888 [D835H]; conditions: Compound concentration 1000.0 nM
[7] = molecular target: cAMP-dependent protein kinase catalytic subunit PRKX (Homo sapiens) (UniProt P51817); conditions: Compound concentration 1000.0 nM
[8] = molecular target: Serine/threonine-protein kinase RIO2 (Homo sapiens) (UniProt Q9BVS4); conditions: Compound concentration 1000.0 nM
[9] = molecular target: Serine/threonine-protein kinase PRP4 homolog (Homo sapiens) (UniProt Q13523); conditions: Compound concentration 1000.0 nM
[10] = test system: Receptor-type tyrosine-protein kinase FLT3 (Homo sapiens), P36888 [D835Y]; conditions: Compound concentration 1000.0 nM
[11] = molecular target: Dual specificity mitogen-activated protein kinase kinase 5 (Homo sapiens) (UniProt Q13163); conditions: Compound concentration 1000.0 nM
[12] = molecular target: 5-hydroxytryptamine receptor 1E (Homo sapiens) (UniProt P28566); conditions: Compound concentration 10.0 uM
[13] = molecular target: Serine/threonine-protein kinase SIK1 (Homo sapiens) (UniProt P57059); conditions: Compound concentration 1000.0 nM
[14] = molecular target: Ephrin type-A receptor 1 (Homo sapiens) (UniProt P21709); conditions: Compound concentration 1000.0 nM
[15] = molecular target: Serine/threonine-protein kinase mTOR (Homo sapiens) (UniProt P42345); conditions: Compound concentration 1000.0 nM
[16] = molecular target: Dual specificity testis-specific protein kinase 1 (Homo sapiens) (UniProt Q15569); conditions: Compound concentration 1000.0 nM
[17] = molecular target: Mitogen-activated protein kinase kinase kinase 14 (Homo sapiens) (UniProt Q99558); conditions: Compound concentration 1000.0 nM
[18] = molecular target: Microtubule-associated serine/threonine-protein kinase 1 (Homo sapiens) (UniProt Q9Y2H9); conditions: Compound concentration 1000.0 nM
[19] = molecular target: Mitogen-activated protein kinase kinase kinase 15 (Homo sapiens) (UniProt Q6ZN16); conditions: Compound concentration 1000.0 nM
[20] = molecular target: Serine/threonine-protein kinase B-raf (Homo sapiens) (UniProt P15056); conditions: Compound concentration 1000.0 nM
[21] = test system: Phosphatidylinositol 4,5-bisphosphate 3-kinase catalytic subunit alpha isoform (Homo sapiens), P42336 [Q546K]; conditions: Compound concentration 1000.0 nM
[22] = molecular target: Cyclin-dependent kinase 4 (Homo sapiens) (UniProt P11802); conditions: Compound concentration 1000.0 nM
[23] = molecular target: Serine/threonine-protein kinase PLK1 (Homo sapiens) (UniProt P53350); conditions: Compound concentration 1000.0 nM
[24] = test system: Phosphatidylinositol 4,5-bisphosphate 3-kinase catalytic subunit alpha isoform (Homo sapiens), P42336 [E545K]; conditions: Compound concentration 1000.0 nM
[25] = molecular target: Interleukin-1 receptor-associated kinase 3 (Homo sapiens) (UniProt Q9Y616); conditions: Compound concentration 1000.0 nM
[26] = test system: Tyrosine-protein kinase ABL1 (Homo sapiens), P00519 [H396P]; conditions: Compound concentration 1000.0 nM
[27] = molecular target: Platelet-derived growth factor receptor alpha (Homo sapiens) (UniProt P16234); conditions: Compound concentration 1000.0 nM
[28] = molecular target: TGF-beta receptor type-1 (Homo sapiens) (UniProt P36897); conditions: Compound concentration 1000.0 nM
[29] = test system: Epidermal growth factor receptor (Homo sapiens), P00533 [G719C]; conditions: Compound concentration 1000.0 nM
[30] = molecular target: Serine/threonine-protein kinase NIM1 (Homo sapiens) (UniProt Q8IY84); conditions: Compound concentration 1000.0 nM
[31] = molecular target: Mitogen-activated protein kinase kinase kinase 7 (Homo sapiens) (UniProt O43318); conditions: Compound concentration 1000.0 nM
[32] = molecular target: Membrane-associated tyrosine- and threonine-specific cdc2-inhibitory kinase (Homo sapiens) (UniProt Q99640); conditions: Compound concentration 1000.0 nM
[33] = test system: Receptor-type tyrosine-protein kinase FLT3 (Homo sapiens), P36888 [UNDEFINED MUTATION]; conditions: Compound concentration 1000.0 nM
[34] = molecular target: Vascular endothelial growth factor receptor 1 (Homo sapiens) (UniProt P17948); conditions: Compound concentration 1000.0 nM
[35] = molecular target: Inhibitor of nuclear factor kappa-B kinase subunit beta (Homo sapiens) (UniProt O14920); conditions: Compound concentration 1000.0 nM
[36] = molecular target: Dual specificity mitogen-activated protein kinase kinase 1 (Homo sapiens) (UniProt Q02750); conditions: Compound concentration 1000.0 nM
[37] = molecular target: Mitogen-activated protein kinase 4 (Homo sapiens) (UniProt P31152); conditions: Compound concentration 1000.0 nM
[38] = molecular target: Proto-oncogene tyrosine-protein kinase receptor Ret (Homo sapiens) (UniProt P07949); conditions: Compound concentration 1000.0 nM
[39] = test system: Proto-oncogene tyrosine-protein kinase receptor Ret (Homo sapiens), P07949 [M918T]; conditions: Compound concentration 1000.0 nM
[40] = molecular target: Mitogen-activated protein kinase kinase kinase kinase 2 (Homo sapiens) (UniProt Q12851); conditions: Compound concentration 1000.0 nM
[41] = molecular target: Casein kinase I isoform epsilon (Homo sapiens) (UniProt P49674); conditions: Compound concentration 1000.0 nM
[42] = molecular target: D(1A) dopamine receptor (Homo sapiens) (UniProt P21728); conditions: Compound concentration 10.0 uM
[43] = molecular target: Fibroblast growth factor receptor 2 (Homo sapiens) (UniProt P21802); conditions: Compound concentration 1000.0 nM
[44] = molecular target: Cyclin-dependent kinase 4 (Homo sapiens) (UniProt P11802); conditions: Compound concentration 1000.0 nM; remark: listed apart in the source

Sequence of Cyclin-dependent kinase 4 (Homo sapiens) (P11802 whole entry): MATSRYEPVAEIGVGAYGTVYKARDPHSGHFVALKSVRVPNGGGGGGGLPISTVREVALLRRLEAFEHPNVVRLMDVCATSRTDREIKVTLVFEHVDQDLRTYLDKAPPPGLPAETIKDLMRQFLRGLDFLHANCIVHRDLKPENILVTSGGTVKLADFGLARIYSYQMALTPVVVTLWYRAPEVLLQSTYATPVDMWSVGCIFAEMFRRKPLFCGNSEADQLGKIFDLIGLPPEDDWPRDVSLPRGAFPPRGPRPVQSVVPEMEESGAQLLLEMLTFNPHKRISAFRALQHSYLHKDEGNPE
Sequence of Mitogen-activated protein kinase kinase kinase 14 (Homo sapiens) (Q99558 whole entry, looked up): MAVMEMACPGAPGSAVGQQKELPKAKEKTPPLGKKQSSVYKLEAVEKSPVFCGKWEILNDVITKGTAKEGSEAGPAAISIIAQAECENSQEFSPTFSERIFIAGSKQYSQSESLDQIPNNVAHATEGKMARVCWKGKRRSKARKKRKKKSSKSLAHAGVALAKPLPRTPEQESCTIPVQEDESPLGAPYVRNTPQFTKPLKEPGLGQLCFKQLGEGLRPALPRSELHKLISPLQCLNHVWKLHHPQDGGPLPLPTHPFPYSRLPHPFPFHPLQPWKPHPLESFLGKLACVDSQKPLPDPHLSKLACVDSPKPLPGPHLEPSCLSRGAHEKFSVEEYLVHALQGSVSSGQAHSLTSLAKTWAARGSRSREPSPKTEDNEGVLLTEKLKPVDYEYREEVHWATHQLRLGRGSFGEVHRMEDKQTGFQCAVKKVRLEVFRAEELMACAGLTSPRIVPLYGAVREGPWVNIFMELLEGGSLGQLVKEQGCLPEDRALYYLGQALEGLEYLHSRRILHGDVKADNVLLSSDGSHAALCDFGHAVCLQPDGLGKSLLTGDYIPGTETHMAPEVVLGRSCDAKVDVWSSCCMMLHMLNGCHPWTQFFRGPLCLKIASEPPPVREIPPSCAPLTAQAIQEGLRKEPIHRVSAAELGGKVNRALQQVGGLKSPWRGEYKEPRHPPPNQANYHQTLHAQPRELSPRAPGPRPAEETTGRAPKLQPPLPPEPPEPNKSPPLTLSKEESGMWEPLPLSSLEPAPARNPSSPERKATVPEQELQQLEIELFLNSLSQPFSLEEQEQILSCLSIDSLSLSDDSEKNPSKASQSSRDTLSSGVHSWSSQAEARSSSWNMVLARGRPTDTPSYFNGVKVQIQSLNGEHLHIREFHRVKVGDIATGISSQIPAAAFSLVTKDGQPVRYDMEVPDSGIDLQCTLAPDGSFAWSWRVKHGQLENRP
Sequence of Inhibitor of nuclear factor kappa-B kinase subunit beta (Homo sapiens) (O14920 whole entry): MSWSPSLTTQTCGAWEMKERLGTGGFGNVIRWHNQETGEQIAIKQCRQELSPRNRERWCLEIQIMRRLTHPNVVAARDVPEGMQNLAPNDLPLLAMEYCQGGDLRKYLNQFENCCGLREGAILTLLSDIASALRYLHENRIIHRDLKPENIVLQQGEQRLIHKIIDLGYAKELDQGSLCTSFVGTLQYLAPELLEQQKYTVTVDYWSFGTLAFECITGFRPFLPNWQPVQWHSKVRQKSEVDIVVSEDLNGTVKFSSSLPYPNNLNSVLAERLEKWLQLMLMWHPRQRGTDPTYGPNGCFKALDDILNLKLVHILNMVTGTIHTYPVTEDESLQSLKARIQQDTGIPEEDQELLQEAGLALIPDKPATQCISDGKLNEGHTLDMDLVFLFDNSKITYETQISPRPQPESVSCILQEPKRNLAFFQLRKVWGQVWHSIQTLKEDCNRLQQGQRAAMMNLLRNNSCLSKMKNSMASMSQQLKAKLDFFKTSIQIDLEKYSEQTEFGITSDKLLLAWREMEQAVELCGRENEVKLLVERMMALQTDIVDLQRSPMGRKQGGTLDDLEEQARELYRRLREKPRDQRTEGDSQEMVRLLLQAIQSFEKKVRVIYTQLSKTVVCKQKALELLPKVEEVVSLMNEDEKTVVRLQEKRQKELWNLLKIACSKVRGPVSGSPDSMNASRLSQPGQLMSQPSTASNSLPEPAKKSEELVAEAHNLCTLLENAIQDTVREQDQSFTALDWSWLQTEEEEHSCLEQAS
Sequence of Serine/threonine-protein kinase RIO2 (Homo sapiens) (Q9BVS4 whole entry, looked up): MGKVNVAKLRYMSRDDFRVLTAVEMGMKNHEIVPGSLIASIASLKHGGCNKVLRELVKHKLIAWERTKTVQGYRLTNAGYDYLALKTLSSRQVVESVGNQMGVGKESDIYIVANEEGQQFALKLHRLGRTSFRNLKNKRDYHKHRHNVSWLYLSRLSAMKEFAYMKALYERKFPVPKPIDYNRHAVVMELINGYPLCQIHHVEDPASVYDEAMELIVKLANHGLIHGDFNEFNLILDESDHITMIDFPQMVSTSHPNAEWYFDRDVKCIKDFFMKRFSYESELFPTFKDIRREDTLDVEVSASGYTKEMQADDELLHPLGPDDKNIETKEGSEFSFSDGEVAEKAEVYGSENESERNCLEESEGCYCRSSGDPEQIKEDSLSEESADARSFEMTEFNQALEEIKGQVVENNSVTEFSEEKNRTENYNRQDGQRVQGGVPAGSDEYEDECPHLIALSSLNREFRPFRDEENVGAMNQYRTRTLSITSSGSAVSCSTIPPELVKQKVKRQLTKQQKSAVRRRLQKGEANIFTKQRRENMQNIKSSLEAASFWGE
Sequence of Proto-oncogene tyrosine-protein kinase receptor Ret (Homo sapiens), P07949 [M918T] (P07949 whole entry M918T): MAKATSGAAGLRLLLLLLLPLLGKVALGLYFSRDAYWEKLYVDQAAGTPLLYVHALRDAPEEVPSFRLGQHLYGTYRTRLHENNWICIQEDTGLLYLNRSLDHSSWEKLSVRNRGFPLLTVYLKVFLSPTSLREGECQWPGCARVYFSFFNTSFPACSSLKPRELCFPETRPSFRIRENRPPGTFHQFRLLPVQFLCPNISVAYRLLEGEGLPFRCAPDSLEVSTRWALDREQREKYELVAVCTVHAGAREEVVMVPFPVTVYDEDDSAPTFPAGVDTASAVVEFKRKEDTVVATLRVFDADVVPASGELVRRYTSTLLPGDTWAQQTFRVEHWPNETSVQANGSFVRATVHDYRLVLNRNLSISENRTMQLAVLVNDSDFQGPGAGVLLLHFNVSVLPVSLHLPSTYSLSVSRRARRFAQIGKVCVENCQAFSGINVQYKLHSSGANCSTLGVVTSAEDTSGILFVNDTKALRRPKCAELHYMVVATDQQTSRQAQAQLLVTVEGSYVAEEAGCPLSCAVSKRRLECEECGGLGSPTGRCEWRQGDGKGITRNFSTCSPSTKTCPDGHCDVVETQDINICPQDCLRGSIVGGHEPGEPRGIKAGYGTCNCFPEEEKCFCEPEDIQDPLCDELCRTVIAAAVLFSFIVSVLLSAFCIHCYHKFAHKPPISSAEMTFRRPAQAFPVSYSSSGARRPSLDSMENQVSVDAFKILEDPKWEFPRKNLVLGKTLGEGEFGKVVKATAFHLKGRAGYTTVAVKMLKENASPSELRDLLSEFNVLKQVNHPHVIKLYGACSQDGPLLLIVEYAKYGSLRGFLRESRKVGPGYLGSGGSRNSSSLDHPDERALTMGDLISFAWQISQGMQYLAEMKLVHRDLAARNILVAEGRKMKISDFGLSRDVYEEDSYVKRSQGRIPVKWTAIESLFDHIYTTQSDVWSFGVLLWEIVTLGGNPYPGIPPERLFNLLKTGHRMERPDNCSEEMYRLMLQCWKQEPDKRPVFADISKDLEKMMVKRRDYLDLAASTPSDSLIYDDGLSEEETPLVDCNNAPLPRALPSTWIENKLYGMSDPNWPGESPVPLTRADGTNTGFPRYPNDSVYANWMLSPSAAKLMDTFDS
Sequence of Serine/threonine-protein kinase SIK1 (Homo sapiens) (P57059 whole entry): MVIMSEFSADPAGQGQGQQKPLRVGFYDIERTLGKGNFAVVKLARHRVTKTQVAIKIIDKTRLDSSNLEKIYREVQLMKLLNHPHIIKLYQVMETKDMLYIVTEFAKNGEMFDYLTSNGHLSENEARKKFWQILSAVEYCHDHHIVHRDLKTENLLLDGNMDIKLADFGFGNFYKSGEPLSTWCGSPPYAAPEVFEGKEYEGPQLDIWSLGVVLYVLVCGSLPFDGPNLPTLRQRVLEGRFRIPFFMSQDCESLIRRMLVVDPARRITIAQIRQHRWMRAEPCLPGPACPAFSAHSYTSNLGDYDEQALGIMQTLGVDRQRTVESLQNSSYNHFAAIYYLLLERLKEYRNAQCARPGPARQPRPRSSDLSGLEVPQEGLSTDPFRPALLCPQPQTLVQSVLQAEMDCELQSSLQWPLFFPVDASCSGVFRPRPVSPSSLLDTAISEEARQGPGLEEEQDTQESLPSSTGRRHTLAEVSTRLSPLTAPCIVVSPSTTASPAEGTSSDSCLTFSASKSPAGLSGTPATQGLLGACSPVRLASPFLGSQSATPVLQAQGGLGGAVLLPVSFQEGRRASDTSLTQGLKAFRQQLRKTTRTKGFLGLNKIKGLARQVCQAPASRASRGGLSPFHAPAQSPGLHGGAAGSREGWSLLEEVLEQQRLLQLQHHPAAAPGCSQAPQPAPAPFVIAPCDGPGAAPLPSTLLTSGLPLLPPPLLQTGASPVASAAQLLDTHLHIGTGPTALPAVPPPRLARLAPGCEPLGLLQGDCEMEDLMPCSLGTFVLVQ
Sequence of Casein kinase I isoform epsilon (Homo sapiens) (P49674 whole entry, looked up, canonical isoform): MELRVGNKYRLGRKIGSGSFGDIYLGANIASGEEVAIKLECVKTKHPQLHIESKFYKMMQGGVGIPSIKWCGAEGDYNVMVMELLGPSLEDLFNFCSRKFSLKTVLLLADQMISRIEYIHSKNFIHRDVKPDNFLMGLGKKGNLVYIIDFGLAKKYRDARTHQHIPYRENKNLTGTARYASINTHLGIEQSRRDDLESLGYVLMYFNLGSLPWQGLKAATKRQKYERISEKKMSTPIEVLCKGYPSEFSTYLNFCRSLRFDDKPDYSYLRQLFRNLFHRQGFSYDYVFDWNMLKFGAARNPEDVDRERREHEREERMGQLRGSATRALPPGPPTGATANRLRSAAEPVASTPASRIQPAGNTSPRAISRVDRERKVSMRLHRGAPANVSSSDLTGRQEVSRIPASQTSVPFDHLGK
Sequence of Proto-oncogene tyrosine-protein kinase receptor Ret (Homo sapiens) (P07949 whole entry): as the sequence (P07949 whole entry M918T) above, with T918M counted along it

CC(=O)C1=C(C)N(c2cccc(C(F)(F)F)c2)C(=O)N[C@@H]1c1ccc(C#N)nc1 [BAY-678]
inactive: residual activity [1] 83.4% | residual activity [2] 91.3% | residual activity [3] 98.1% | residual activity [4] 100% | residual activity [5] 100% | residual activity [6] 100% | residual activity [7] 100% | residual activity [8] 98% | residual activity [9] 100% | residual activity [10] 93.9% | residual activity [11] 100% | inhibition [12] 7.74% | residual activity [13] 100% | residual activity [14] 100% | residual activity [15] 92.5% | residual activity [16] 100% | residual activity [17] 100% | residual activity [18] 96.9% | residual activity [19] 100% | residual activity [20] 78.5% | residual activity [21] 100% | residual activity [22] 100% | residual activity [23] 100% | residual activity [24] 77.5% | residual activity [25] 100% | residual activity [26] 87.1% | residual activity [27] 100% | residual activity [28] 99.2% | residual activity [29] 100% | residual activity [30] 83.5% | residual activity [31] 100% | residual activity [32] 90.6% | residual activity [33] 87.4% | residual activity [34] 62.4% | residual activity [35] 100% | residual activity [36] 93.3% | residual activity [37] 100% | residual activity [38] 92.4% | residual activity [39] 100% | residual activity [40] 100% | residual activity [41] 100% | inhibition [42] -8.4% | residual activity [43] 100% | residual activity [44] 79.4%
